Test results reported in patent US20030040510A1, “Selective estrogen receptor modulators in combination with estrogens” (Endorecherche, Inc., priority 2000, published 2003).
Values joined by “and” are separate entries in the source; they are usually repeats but may differ in a detail not shown here. Equal values may be shown once. Where a name gives a salt, the structure may show the parent alone. One block for each molecule: values may come before it.

Key:
[1] = tested on: ovariectomized female rats; assay: Prevention of bone loss, body fat, serum cholesterol and ALP, 26-week treatment of OVX rats (Example 5A, experiment 2); assay type: in vivo, Sprague-Dawley rats; settings: 26 weeks
Protocol: Ten to twelve week-old female Sprague-Dawley rats (Crl:CD(SD)Br) (Charles River Laboratory, St-Constant, Canada) weighing approximately 220-270 g at start of treatment were used. The animals were acclimatized to the environmental conditions (temperature: 22±3° C.; humidity: 50±20%; 12-h light-12-h dark cycles, lights on at 07:15 h) for at least 1 week before starting the experiments. The animals were housed individually and were allowed free access to tap water and a pelleted certified rodent feed (Lab Diet 5002, Ralston Purina, St-Louis, Mo.). Experiments were conducted in an animal facility approved by the Canadian Council on Animal Care (CCAC) and the Association for Assessment and Accreditation of Laboratory Animal Care (AAALAC) in accordance with the CCAC Guide for Care and Use of Experimental Animals.
On day 1 of the study, the animals of the appropriate groups were bilaterally OVX under isoflurane anesthesia. Tested compounds were administered as suspension in 0.4% methylcellulose by oral gavage. Treatments were initiated on day 2 of the study and were performed once daily during 26 weeks. In both experiments, animals not receiving a test article were treated with the appropriate vehicle alone during the same period.
After 3 months (experiment 1) or 26 weeks (experiment 2) of treatment, individual rats under Isoflurane anesthesia had their whole body skeleton and lumbar spine scanned using dual energy x-ray absorptiometry (DEXA; QDR 4500A, Hologic, Waltham, Mass.) and a Regional High Resolution Scan software. The bone mineral density (BMD) of the lumbar spine (vertebrae L2 to L4) and the total body composition (fat percentage) were determined.
After 3 months (experiment 1) or 26 weeks (experiment 2) of treatment, blood samples were collected at the jugular vein from overnight fasted animals (under Isoflurane anesthesia). Samples were processed for serum preparation and frozen at −80° C. until assay. Serum cholesterol levels and alkaline phospatase activity (ALP) were determined using the Boehringer Mannheim Diagnostic Hitachi 911 Analyzer (Boehringer Mannheim Diagnostic Laboratory Systems).

[2] = tested on: breast and endometrial tissues; assay: Antiestrogens tested for SERM function and estrogenic activity in breast and endometrium; settings: for Estrogenic activity in breast and endometrial tissues: physiological or pharmacological concentrations
Text: As used herein, a selective estrogen receptor modulator (SERM) is a compound that either directly or through its active metabolite functions as an estrogen receptor antagonist (“antiestrogen”) in breast tissue, yet provides estrogenic or estrogen-like effect on bone tissue and on serum cholesterol levels (i.e. by reducing serum cholesterol). Non-steroidal compounds that function as estrogen receptor antagonists in vitro or in human or rat breast tissue (especially if the compound acts as an antiestrogen on human breast cancer cells) is likely to function as a SERM. Conversely, steroidal antiestrogens tend not to function as SERMs because they tend not to display any beneficial effect on serum cholesterol. […] These SERMs may be called “pure SERMs”. […] This second series of SERMs may be called “mixed SERMs”. The unwanted estrogenic activities of these “mixed SERMs”, may be inhibited by addition of pure “SERMs” as shown in FIGS. 6 and 7 in in vitro tests and in FIG. 9 in an in vivo test of breast cancer.

[3] = tested on: ZR-75-1 breast tumor xenografts; assay: Growth of human ZR-75-1 breast tumor xenografts in OVX nude mice supplemented with estrone (DHEA, EM-800; Example 1); settings: OVX + E1 (0.5 μg) alone, 9.5 months
ZR-75-1 breast tumors = assay: Growth and response category of human ZR-75-1 breast tumors in OVX nude mice, 7 antiestrogens, 161 days (Example 8); assay type: in vivo; settings: 161 days
Protocol: The mice (5 per cage) were housed in vinyl cages equipped with air filter lids, which were kept in laminar airflow hoods and maintained under pathogen-limiting conditions. The photoperiod was 12 hours of light and 12 hours of darkness (lights on at 07:15). Cages, bedding and food (Agway Pro-Lab R-M-H Diet #4018) were autoclaved before use. Water was autoclaved and provided ad libitum. Bilateral ovariectomy was performed under isoflurane-induced anesthesia. […] Randomization and treatments were started one week later. […] The 17 groups included two control groups (OVX and OVX+Estrone), seven groups supplemented with an estrone implant and treated with an antiestrogen and eight other groups that received an antiestrogen alone. The estrone implants were then removed from the animals in the ovariectomized control group (OVX) and in groups that were to receive the antiestrogen alone. […] Tamoxifen was purchased from […], Israel) while toremifene citrate was purchased from Orion (Espoo, Finland). […] Animals in both control groups received 0.2 ml of the vehicle alone. The antiestrogen suspensions at the appropriate concentration were prepared each month, stored at 4° C. and used under constant agitation. Powder stock were hermetically stored at 4° C. […] Tumor response was assessed at the end of the study or at death of each animal, if it occurred during the course of the experiment. In this case, only data of mice that survived for at least half of the study (84 days) were used in the tumor response analysis.

[4] = Tissue distribution of radioactivity after a single oral dose of ^14C-EM-800; assay type: in vivo, female Long-Evans rats; settings: for Drug-derived radioactivity, brain / Drug-derived radioactivity, blood / Drug-derived radioactivity, plasma: 20 mg/kg
[5] = 200 μg daily, absence of estrone

SMILES: Oc1ccc2c(c1)CC[C@H](c1ccccc1)[C@@H]2c1ccc(OCCN2CCCC2)cc1 (racemic) [Lasofoxifene, cis-1R-[4′-pyrrolidino-ethoxyphenyl]-2S-phenyl-6-hydroxy-1,2,3,4,-tetrahydronaphthalene D-(−)-tartrate salt]
Serum cholesterol ([1]; OVX rats): 0.60 ± 0.02 mmol/L
OVX-induced increase on serum cholesterol levels ([1]; alone or in combination with Premarin): completely prevented
Function as SERM [2]: found to function as SERMs

SMILES: CCC(=C(c1ccc(O)cc1)c1ccc(OCCN(C)C)cc1)c1ccccc1 [4-hydroxy-Tamoxifen, 1-(4-dimethylaminoethoxyphenyl)-1-(4-hydroxyphenyl)-2-phenyl-but-1-ene]
Function as SERM [2]: found to function as SERMs
Estrogenic activity in breast and endometrial tissues [2]: have some estrogenic activities

SMILES: C[C@]12CC[C@@H]3c4ccc(O)cc4CC[C@H]3[C@@H]1CCC2=O [E1, Estrone, reference compound]
Category of response: Complete [3]: 0 (0) Number and (%)
Category of response: Partial [3]: 0 (0) Number and (%)
Category of response: Progression [3]: 14 (87.5) Number and (%)
Category of response: Complete ([3]; listed as estrone): 0 Number and (%)

SMILES: C[C@]12CC[C@@H]3c4ccc(O)cc4C[C@@H](CCCCCCCCC[S+]([O-])CCCC(F)(F)C(F)(F)F)[C@H]3[C@@H]1CC[C@@H]2O (stereo partly shown) [ICI 182,780]
Function as SERM [2]: not to function as a-SERMs

SMILES: Cl.Oc1ccc(-c2sc3cc(O)ccc3c2Oc2ccc(OCCN3CCCCC3)cc2)cc1 [LY 335 563, 6-hydroxy-3-[4-[2-(1-piperidinyl)ethoxy]phenoxyl]-2-(4-hydroxyphenyl) benzo[b]thiopene hydrochloride]
Function as SERM [2]: found to function as SERMs
Estrogenic activity in breast and endometrial tissues [2]: have some estrogenic activities

SMILES: CN(C)CCOc1ccc(/C(=C(/CCCl)c2ccccc2)c2ccc(O)cc2)cc1 [OH-Toremifene, (Z)-(2)-2-[4-(4-chloro-1-(4-hydroxyphenyl)-2-phenyl-1-butenyl)phenoxy]-N,N-dimethyletha namine]
Function as SERM [2]: found to function as SERMs
Estrogenic activity in breast and endometrial tissues [2]: have some estrogenic activities

SMILES: Cc1c(-c2ccc(O)cc2)n(Cc2ccc(OCCN3CCCCCC3)cc2)c2ccc(O)cc12 [TSE 424]
Function as SERM [2]: found to function as SERMs

SMILES: CC/C(=C(\c1ccccc1)c1ccc(OCCN(C)C)cc1)c1ccccc1 [Tamoxifen, (Z)-2-[4-(1,2-diphenyl-1-butenyl)phenoxy]-N,N-dimethylethanamine]
Function as SERM [2]: found to function as SERMs
Estrogenic activity in breast and endometrial tissues [2]: have some estrogenic activities
Progressing tumors (ZR-75-1 breast tumors; 50 μg daily + estrone): 65%
Progressing tumors (ZR-75-1 breast tumors; [5]): 62%

SMILES: CN(C)CCOc1ccc(/C(=C(/CCCl)c2ccccc2)c2ccccc2)cc1 [Toremifene, (Z)-2-[4-(4-Chloro-1,2-diphenyl-1-butenyl)phenoxy]-N,N-dimethylethanamine]
Function as SERM [2]: found to function as SERMs
Estrogenic activity in breast and endometrial tissues [2]: have some estrogenic activities
Progressing tumors (ZR-75-1 breast tumors; 50 μg daily + estrone): 89%
Increase of average tumor size over baseline (ZR-75-1 breast tumors; [5]): 86%
Progressing tumors (ZR-75-1 breast tumors; [5]): 21%

Radioactivity in the brain lower than in liver ([4]; 2 hours): 412
Radioactivity in the brain lower than in plasma ([4]; 2 hours): 13 times
Radioactivity in the brain lower than in the blood ([4]; 2 hours): 8.4 times
Radioactivity in the brain lower than in the uterus ([4]; 2 hours): 21 times
Drug-derived radioactivity, liver ([4]; 2 hr, 20 mg/kg oral): 7.2547 μg EM-800 equiv/g tissue
Drug-derived radioactivity, uterus ([4]; 2 hr, 20 mg/kg oral): 0.3675 μg EM-800 equiv/g tissue
Drug-derived radioactivity, liver ([4]; 4 hr, 20 mg/kg oral): 3.2201 μg EM-800 equiv/g tissue
Drug-derived radioactivity, uterus ([4]; 4 hr, 20 mg/kg oral): 0.2866 μg EM-800 equiv/g tissue
Drug-derived radioactivity, liver ([4]; 6 hr, 20 mg/kg oral): 2.7462 μg EM-800 equiv/g tissue
Drug-derived radioactivity, uterus ([4]; 6 hr, 20 mg/kg oral): 0.2757 μg EM-800 equiv/g tissue
Drug-derived radioactivity, liver ([4]; 8 hr, 20 mg/kg oral): 2.7748 μg EM-800 equiv/g tissue
Drug-derived radioactivity, uterus ([4]; 8 hr, 20 mg/kg oral): 0.3332 μg EM-800 equiv/g tissue
Drug-derived radioactivity, liver ([4]; 12 hr, 20 mg/kg oral): 1.8232 μg EM-800 equiv/g tissue
Drug-derived radioactivity, uterus ([4]; 12 hr, 20 mg/kg oral): 0.2407 μg EM-800 equiv/g tissue
Drug-derived radioactivity, liver ([4]; 24 hr, 20 mg/kg oral): 0.6391 μg EM-800 equiv/g tissue
Drug-derived radioactivity, uterus ([4]; 24 hr, 20 mg/kg oral): 0.0837 μg EM-800 equiv/g tissue
Drug-derived radioactivity, liver ([4]; 36 hr, 20 mg/kg oral): 0.4034 μg EM-800 equiv/g tissue
Drug-derived radioactivity, uterus ([4]; 36 hr, 20 mg/kg oral): 0.0261 μg EM-800 equiv/g tissue
Drug-derived radioactivity, liver ([4]; 48 hr, 20 mg/kg oral): 0.2196 μg EM-800 equiv/g tissue
Drug-derived radioactivity, uterus ([4]; 48 hr, 20 mg/kg oral): 0.0238 μg EM-800 equiv/g tissue
Drug-derived radioactivity, liver ([4]; 72 hr, 20 mg/kg oral): 0.1326 μg EM-800 equiv/g tissue
Drug-derived radioactivity, uterus ([4]; 72 hr, 20 mg/kg oral): 0 μg EM-800 equiv/g tissue
Drug-derived radioactivity, liver ([4]; 96 hr, 20 mg/kg oral): 0.0944 μg EM-800 equiv/g tissue
Drug-derived radioactivity, uterus ([4]; 96 hr, 20 mg/kg oral): 0 μg EM-800 equiv/g tissue
Drug-derived radioactivity, liver ([4]; 168 hr, 20 mg/kg oral): 0.0348 μg EM-800 equiv/g tissue
Drug-derived radioactivity, uterus ([4]; 168 hr, 20 mg/kg oral): 0 μg EM-800 equiv/g tissue
Total drug-derived radioactivity in the brain ([4]; female Long-Evans rats, 20 mg/kg oral): not detected after 12 hr post dose
SMILES: CC1=C(c2ccc(OC(=O)C(C)(C)C)cc2)[C@H](c2ccc(OCCN3CCCCC3)cc2)Oc2cc(OC(=O)C(C)(C)C)ccc21 [^14C-EM-800]
Drug-derived radioactivity, brain ([4]; 24 hr, 20 mg/kg oral): 0 ng EM-800 equiv/g tissue and 0 μg EM-800 equiv/g tissue
Drug-derived radioactivity, blood ([4]; 36 hr, 20 mg/kg oral): 0 ng EM-800 equiv/g tissue and 0 μg EM-800 equiv/g tissue
Drug-derived radioactivity, brain ([4]; 36 hr, 20 mg/kg oral): 0 ng EM-800 equiv/g tissue and 0 μg EM-800 equiv/g tissue
Drug-derived radioactivity, plasma ([4]; 36 hr, 20 mg/kg oral): 0 ng EM-800 equiv/g tissue and 0 μg EM-800 equiv/g tissue
Drug-derived radioactivity, blood ([4]; 48 hr, 20 mg/kg oral): 0 ng EM-800 equiv/g tissue and 0 μg EM-800 equiv/g tissue
Drug-derived radioactivity, brain ([4]; 48 hr, 20 mg/kg oral): 0 ng EM-800 equiv/g tissue and 0 μg EM-800 equiv/g tissue
Drug-derived radioactivity, plasma ([4]; 48 hr, 20 mg/kg oral): 0 ng EM-800 equiv/g tissue and 0 μg EM-800 equiv/g tissue
Drug-derived radioactivity, blood ([4]; 72 hr, 20 mg/kg oral): 0 ng EM-800 equiv/g tissue and 0 μg EM-800 equiv/g tissue
Drug-derived radioactivity, brain ([4]; 72 hr, 20 mg/kg oral): 0 ng EM-800 equiv/g tissue and 0 μg EM-800 equiv/g tissue
Drug-derived radioactivity, plasma ([4]; 72 hr, 20 mg/kg oral): 0 ng EM-800 equiv/g tissue and 0 μg EM-800 equiv/g tissue
Drug-derived radioactivity, blood ([4]; 96 hr, 20 mg/kg oral): 0 ng EM-800 equiv/g tissue and 0 μg EM-800 equiv/g tissue
Drug-derived radioactivity, brain ([4]; 96 hr, 20 mg/kg oral): 0 ng EM-800 equiv/g tissue and 0 μg EM-800 equiv/g tissue
Drug-derived radioactivity, plasma ([4]; 96 hr, 20 mg/kg oral): 0 ng EM-800 equiv/g tissue and 0 μg EM-800 equiv/g tissue
Drug-derived radioactivity, blood ([4]; 168 hr, 20 mg/kg oral): 0 ng EM-800 equiv/g tissue and 0 μg EM-800 equiv/g tissue
Drug-derived radioactivity, brain ([4]; 168 hr, 20 mg/kg oral): 0 ng EM-800 equiv/g tissue and 0 μg EM-800 equiv/g tissue
Drug-derived radioactivity, plasma ([4]; 168 hr, 20 mg/kg oral): 0 ng EM-800 equiv/g tissue and 0 μg EM-800 equiv/g tissue
